According to US20210052589A1, “COMPOUNDS FOR TREATING ALZHEIMER'S DISEASE” (Amabiotics, priority 2018, published 2021):

Experiments:
Tau = test: Hyperphosphorylation of Tau in neuron cytoplasm (AT100, overlapping Tau/MAP-2) after Aβ1-42 intoxication; format: cell-based, rat
Protocol: (§1) Rat cortical neurons are cultured as described by Callizot et al., (2013) with modifications. Briefly pregnant female rat (Wistar) of 15 days of gestation are killed. Foetuses are collected and immediately placed in ice-cold L15 Leibovitz medium with a 2% penicillin (10,000 U/mL) and streptomycin (10 mg/ml) solution (PS) and 1% bovine serum albumin (BSA). Cortex are treated for 20 min at 37° C. with a trypsin- EDTA solution at a final concentration of 0.05% trypsin and 0.02% EDTA. The dissociation is stopped by addition of Dulbecco's modified Eagle's medium (DMEM) with 4.5 g/L of glucose, containing DNAse I grade II (final concentration 0.5 mg/ml) and 10% fetal calf serum (FCS). Cells are mechanically dissociated by three forced passages through the tip of a 10-ml pipette. Cells are then centrifuged at 515×g for 10 min at 4° C. The supernatant is discarded, and the pellet is resuspended in a defined culture medium consisting of Neurobasal medium with a 2% solution of B27 supplement, 2 mmol/litter of L-glutamine, 2% of PS solution, 10 ng/mL of brain-derived neurotrophic factor (BDNF), 2% of heat-inactivated horse serum, 2% of heat-inactivated FCS, 1 g/L of glucose, 1 mM of sodium pyruvate, and 100 μM of non-essential amino acids. Viable cells are counted in a Neubauer cytometer, using the trypan blue exclusion test. The cells are seeded at a density of 45,000 per well in 96-well plates (for immunostaining) precoated with poly-L-lysine and are cultured at 37° C. in an air (95%)-CO2 (5%) incubator. For 96 wells plates, only 60 wells are used. The wells of first and last lines and columns are not used (to avoid the edge effect) and are filled with sterile water. The medium is changed every 2 days.
(§2) On day 10 of culture, queuine is dissolved in the culture medium and pre-incubated with primary cortical neurons for 24H, before Aβ1-42 exposure. Then on day 11 of culture, the cortical neurons are intoxicated with AB solutions. The Aβ1-42 preparation is done following the procedure described by Callizot et al., (2013). Briefly, Aβ1-42 peptide are dissolved in the defined culture medium mentioned above, at an initial concentration of 40 μmol/L. This solution is gently agitated for 3 days at 37° C. in the dark and immediately used after being properly diluted in culture medium to the concentration used (5 μM, 0.5μM oligomers).
(§3) Aβ1-42 preparation is added to a final concentration of 5μM (0.5 μM oligomers, ABO) diluted in control medium in presence of queuine, for 72 hours.
Each compound is tested on 1 culture in a 96 well plate (6 wells per conditions). For 96 wells plates, only 60 wells are used. The wells of first and last lines and columns are not used (to avoid the edge effect) and are filled with sterile water. Queuine is added 24h before Aβ1-42 application. The following conditions are assessed:
(§4) 72 hours after Aβ1-42 application, the cell culture supernatant are collected cytokine quantification (e.g. TNFα) and the cortical neurons are fixed by a cold solution of ethanol (95%) and acetic acid (5%) for 5 min at −20° C. […]

TNF-α = test: TNFa release in a culture of cortical neurons and microglia after Aβ1-42 injury (ELISA); format: cell-based, rat; conditions: for TNFa (% of vehicle group): control 100.00, Aβ1-42 alone 126.75; for level of TNFα (in words): Aβ1-42 (5 μM)
Protocol: as §1, §2, §3
72 hours after Aβ1-42 application, the cell culture supernatant are collected cytokine quantification (e.g. TNFα) and the cortical neurons are fixed by a cold solution of ethanol (95%) and acetic acid (5%) for 5 min at −20° C. After permeabilization with 0.1% of saponin, cells are incubated for 2 hours with: • a) chicken polyclonal antibody antimicrotubule-associated-protein 2 (MAP-2) at dilution of 1/1000 in PBS containing 1% fetal calf serum and 0.1% of saponin (this antibody stains specifically cell bodies and neurites, allowing study of neuronal cell death and neurite network). • b) mouse monoclonal anti-tau phosphor (Thr212, Ser214) at the dilution of 1/100 in PBS containing 1% foetal calf serum and 0.1% of saponin. • c) rabbit polyclonal antibody anti-SIRP alpha/CD172a at dilution of 1/400 in PBS containing 1% fetal calf serum and 0.1% of saponin (this antibody stains specifically the microglia and is allow to evaluate the activation of the microglial cells).
In order to assess the activation of microglia in the cell culture, the levels of TNF-α are quantified in cell culture supernatant after 72h (end of the culture) by ELISA.

Rat cortical neurons [1] = test: Neuron survival (number of MAP-2 positive neurons) after Aβ1-42 intoxication; format: cell-based; conditions: for survival of neurons: p<0.05
Protocol: as §1
as §2, with “oligomers). […]” for “oligomers).”
(§5) Each compound is tested on 1 culture in a 96 well plate (6 wells per conditions). […] The following conditions are assessed:
as §4

Rat cortical neurons [2] = test: Total neurite network (length of MAP-2 positive neurite) after Aβ1-42 intoxication; format: cell-based
Protocol: as §1
as §2, with “oligomers). […]” for “oligomers).”
as §5, §4

[3] = queuine 300 nM added 24h before Aβ1-42 (5 μM, 72 H), p<0.05
[4] = queuine 1 μM added 24h before Aβ1-42 (5 μM, 72 H), p<0.05
[5] = queuine 3 μM added 24h before Aβ1-42 (5 μM, 72 H), p<0.05
[6] = BDNF 50 ng/ml, Aβ1-42 (5 μM, 72 H)

7-(3,4-trans-4,5-cis-dihydroxy-1-cyclopenten-3-ylaminomethyl)-7-deazaguanine [queuine]
Tau hyperphosphorylation (Tau; queuine 100 nM added 24h before Aβ1-42 (5 μM, 72 H), p<0.05): restores the level of hyperphosphorylation of Tau | Tau hyperphosphorylation (Tau; [3]): restores the level of hyperphosphorylation of Tau | Tau hyperphosphorylation (Tau; [4]): restores the level of hyperphosphorylation of Tau | Tau hyperphosphorylation (Tau; [5]): restores the level of hyperphosphorylation of Tau | TNFa (% of vehicle group) (TNF-α; Aβ1-42 (5 μM, 72 H) + queuine (300 nM)): 105.54 % of vehicle group | TNFa (% of vehicle group) (TNF-α; Aβ1-42 (5 μM, 72 H) + queuine (1 μM)): 87.33 % of vehicle group | TNFa (% of vehicle group) (TNF-α; Aβ1-42 (5 μM, 72 H) + queuine (3 μM)): 93.32 % of vehicle group | level of TNFα (in words) (TNF-α; queuine 300 nM, p<0.05): restores the level of TNFα | level of TNFα (in words) (TNF-α; queuine 1 μM, p<0.05): restores the level of TNFα | level of TNFα (in words) (TNF-α; queuine 3 μM, p<0.05): restores the level of TNFα | survival of neurons (Rat cortical neurons [1]; queuine 100 nM added 24h before Aβ1-42 (5 μM, 72 H)): significantly restores the survival of neurons | survival of neurons (Rat cortical neurons [1]; queuine 300 nM added 24h before Aβ1-42 (5 μM, 72 H)): significantly restores the survival of neurons | survival of neurons (Rat cortical neurons [1]; queuine 1 μM added 24h before Aβ1-42 (5 μM, 72 H)): significantly restores the survival of neurons | neurite network (Rat cortical neurons [2]; [3]): significantly restores the neurite network | neurite network (Rat cortical neurons [2]; [4]): significantly restores the neurite network | neurite network (Rat cortical neurons [2]; [5]): significantly restores the neurite network

B1: BDNF: brain-derived neurotrophic factor, used at 50 ng/ml as positive control and reference compound (protein, UniProt P23560 19-247, looked up)
Neurotrophic factor BDNF …: APMKEANIRGQGGLAYPGVRTHGTLESVNGPKAGSRGLTSLADTFEHVIEELLDEDQKVRPNEENNKDADLYTSRVMLSSQVPLEPPLLFLLEEYKNYLDAANMSMRVRRHSDPARRGELSVCDSISEWVTAADKKTAVDMSGGTVTVLEKVPVSKGQLKQYFYETKCNPMGYTKEGCRGIDKRHWNSQCRTTQSYVRALTMDSKKRIGWRFIRIDTSCVCTLTIKRGR
Tau hyperphosphorylation (Tau; [6]): decreases Tau hyperphosphorylation | TNFa (% of vehicle group) (TNF-α; Aβ1-42 (5 μM, 72 H) + BDNF (50 ng/ml)): 102.14 % of vehicle group | level of TNFα (in words) (TNF-α; BDNF 50 ng/ml): decreases the level of TNFα | level neuronal staining for MAP-2 (number of cortical neurons) (Rat cortical neurons [1]; [6]): restores the level neuronal staining for MAP-2 | neurite network (Rat cortical neurons [2]; [6]): restores the neurite network
